Experimental data reported in article PMC7004565, “Nucleotide inhibition of the pancreatic ATP-sensitive K^+ channel explored with patch-clamp fluorometry” (eLife, 2020).
Values joined by “and” are separate entries in the source; they are usually repeats but may differ in a detail not shown here. Equal values may be shown once.

Biological target: Kir6.2-GFP + SUR1 (Homo sapiens, UniProt Q14654)
Assay: FRET (ANAP quenching) nucleotide binding in unroofed membranes
Set-up: full length, fully ANAP-labelled Kir6.2 protein was produced and successfully trafficked to the membrane in the presence of SUR1; expressed in transfected cells; host or cells: HEK-293T
Conditions: Hill fit
Text: To measure nucleotide binding, cells transfected with Kir6.2*-GFP + SUR1 were briefly sonicated, leaving behind unroofed plasma membrane fragments ([Heuser, 2000]; [Zagotta et al., 2016]; [Puljung et al., 2019]) containing ANAP-labelled KATP channels with the intracellular nucleotide-binding sites exposed to the bath solution. The sample was excited with a 385 nm LED and emitted fluorescence from the membrane fragments was passed through a spectrometer, allowing us to separate ANAP, GFP, and TNP-ATP fluorescence by peak wavelength (Figure 1E,F). As expected from FRET, increasing the concentration of TNP-ATP caused a decrement in the ANAP peak at 472 nm and a concomitant increase in the TNP-ATP peak at 561 nm (Figure 1F). We used the quenching of the ANAP peak as a direct measure of TNP-ATP binding as this signal was specific to KATP. In contrast, the peak TNP-ATP fluorescence may include contributions from both specific and non-specific nucleotide binding, as well as direct excitation of TNP-ATP in solution by the 385 nm excitation light. Due to the sharp cut-off of the GFP emission spectrum at shorter wavelengths, our measurements of peak ANAP fluorescence were unaffected by the presence of the GFP tag on Kir6.2. […]
Epifluorescence imaging and spectroscopy were performed using a Nikon Eclipse TE2000-U microscope with a 60x water immersion objective (Plan Apo VC, NA = 1.2, Nikon; Kingston upon Thames, UK) or a 100x oil immersion objective (Nikon, Apo TIRF, NA = 1.49). […] Fluorescence spectra were collected by exciting ANAP as above but using a 400 nm long-pass emission filter (ThorLabs), then passing emitted light through an IsoPlane 160 Spectrometer (Princeton Instruments; Trenton, NJ) with a 300 grooves mm^-1 grating. […]
Unroofed membranes were prepared as described previously ([Heuser, 2000]; [Zagotta et al., 2016]; [Puljung et al., 2019]). […] Unroofed membrane fragments were nearly invisible in bright-field images and identified by their GFP and ANAP fluorescence. […]

Sequence of Kir6.2-GFP + SUR1 (Q14654 whole entry): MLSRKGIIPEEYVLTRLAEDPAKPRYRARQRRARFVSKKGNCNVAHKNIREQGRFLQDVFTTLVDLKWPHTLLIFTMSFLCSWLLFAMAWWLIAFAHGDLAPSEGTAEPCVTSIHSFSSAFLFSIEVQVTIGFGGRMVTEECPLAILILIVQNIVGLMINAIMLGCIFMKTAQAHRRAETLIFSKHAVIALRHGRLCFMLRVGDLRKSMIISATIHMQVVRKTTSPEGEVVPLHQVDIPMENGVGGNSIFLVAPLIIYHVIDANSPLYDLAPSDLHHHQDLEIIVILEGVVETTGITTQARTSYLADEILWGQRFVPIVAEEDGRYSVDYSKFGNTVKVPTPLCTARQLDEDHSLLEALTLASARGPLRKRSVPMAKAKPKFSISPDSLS
Sequence of Kir6.2-GFP + SUR1 (Q09428 whole entry partner): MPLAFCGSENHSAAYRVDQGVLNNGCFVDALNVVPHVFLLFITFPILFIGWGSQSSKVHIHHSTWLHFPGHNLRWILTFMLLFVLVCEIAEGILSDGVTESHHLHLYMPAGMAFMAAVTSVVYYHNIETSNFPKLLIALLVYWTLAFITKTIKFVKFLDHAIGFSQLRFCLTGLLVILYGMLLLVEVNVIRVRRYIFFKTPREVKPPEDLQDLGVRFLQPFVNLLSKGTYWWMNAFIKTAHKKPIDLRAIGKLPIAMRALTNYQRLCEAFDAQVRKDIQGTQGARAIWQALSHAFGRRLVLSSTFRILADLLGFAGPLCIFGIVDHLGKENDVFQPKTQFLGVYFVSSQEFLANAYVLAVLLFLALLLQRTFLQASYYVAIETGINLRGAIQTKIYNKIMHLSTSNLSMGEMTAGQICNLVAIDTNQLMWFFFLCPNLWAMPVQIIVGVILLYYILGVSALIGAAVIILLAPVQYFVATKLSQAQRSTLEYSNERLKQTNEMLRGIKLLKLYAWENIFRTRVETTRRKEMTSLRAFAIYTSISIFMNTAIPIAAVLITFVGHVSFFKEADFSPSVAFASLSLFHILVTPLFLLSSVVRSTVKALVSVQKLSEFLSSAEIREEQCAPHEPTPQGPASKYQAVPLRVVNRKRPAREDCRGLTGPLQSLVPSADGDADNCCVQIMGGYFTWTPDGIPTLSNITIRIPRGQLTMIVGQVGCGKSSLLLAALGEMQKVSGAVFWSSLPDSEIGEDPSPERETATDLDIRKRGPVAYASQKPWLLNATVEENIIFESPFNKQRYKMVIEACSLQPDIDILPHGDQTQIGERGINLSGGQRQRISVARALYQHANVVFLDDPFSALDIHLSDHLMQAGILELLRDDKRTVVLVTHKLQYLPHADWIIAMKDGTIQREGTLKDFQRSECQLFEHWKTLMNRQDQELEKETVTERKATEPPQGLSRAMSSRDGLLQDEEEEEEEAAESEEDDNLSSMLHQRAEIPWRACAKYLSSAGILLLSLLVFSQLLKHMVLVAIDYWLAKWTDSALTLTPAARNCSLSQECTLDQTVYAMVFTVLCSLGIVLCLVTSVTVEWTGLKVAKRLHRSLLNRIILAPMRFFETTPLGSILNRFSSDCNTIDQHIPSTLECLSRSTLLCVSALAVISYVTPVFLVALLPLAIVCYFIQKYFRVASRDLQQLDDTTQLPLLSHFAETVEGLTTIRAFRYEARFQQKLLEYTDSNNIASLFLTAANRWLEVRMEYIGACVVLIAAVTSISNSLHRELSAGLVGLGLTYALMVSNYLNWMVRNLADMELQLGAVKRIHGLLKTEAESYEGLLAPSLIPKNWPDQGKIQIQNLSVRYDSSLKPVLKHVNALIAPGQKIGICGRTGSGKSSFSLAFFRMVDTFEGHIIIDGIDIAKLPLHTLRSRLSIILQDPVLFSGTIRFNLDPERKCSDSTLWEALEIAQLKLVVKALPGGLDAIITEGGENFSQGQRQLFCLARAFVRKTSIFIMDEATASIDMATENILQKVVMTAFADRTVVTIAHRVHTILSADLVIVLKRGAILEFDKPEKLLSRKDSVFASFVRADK

In the case of `Nc1ncnc2c1ncn2[C@@H]1O[C@H](COP(=O)(O)OP(=O)(O)OP(=O)(O)O)[C@H]2OC3(O[C@H]21)C([N+](=O)[O-])=CC(=[N+]([O-])[O-])C=C3[N+](=O)[O-]` (stereo partly drawn) [TNP-ATP, trinitrophenyl-ATP], the “h (Hill coefficient) fluorescence quenching” value is reported as 0.82, the Emax (fraction, read-out: Emax fluorescence quenching) is reported as 93% and the EC50 (n = 18, read-out: EC50 fluorescence quenching) is reported as 25.6 µM and 25.7 µM.
